Among the data in ChEMBL document CHEMBL1158772, “Benzophenones from Hypericum carinatum” (J Nat Prod, 2005) are Activity values, retold here.

Active and inactive are the calls of the source. The calls are words filed in the database; no cut-off is given here.

What all share (assay type): functional
The nature of experiment [1]: Antioxidant activity assessed as ABAP free radical scavenging measured by TRAP assay.
Experiment [2] in a line: Antioxidant activity assessed as ABAP free radical scavenging measured at 3.2 mM by TRAP assay.
Experiment [3] in a line: Antioxidant activity assessed as ABAP free radical scavenging measured at 1.6 mM by TRAP assay.

As to `Cc1c(O)c2c(c(C(=O)c3ccccc3)c1O)OC(C)(C)C=C2`, in experiment [1], the result was inactive.

Consider `O=c1c(O)c(-c2ccc(O)c(O)c2)oc2cc(O)cc(O)c12`, for which the result in experiment [2] was Active.

For the compound `Cc1c(O)c(C(=O)c2ccccc2)c(O)c2c1OC(C)(C)C=C2`, the result in experiment [2] and in experiment [3] was Active.

For the compound `CC(C)C(=O)C1=C(O)C(Cc2c(O)c3c(c(C(=O)C(C)C)c2O)OC(C)(C)C=C3)=C(O)C(C)(C)C1=O`, the outcome in experiment [1] was inactive.
